Patent publication US20230096766A1, “AMINO ACID HAVING FUNCTIONAL GROUP CAPABLE OF INTERMOLECULAR HYDROGEN BONDING, PEPTIDE COMPOUND CONTAINING SAME AND METHOD FOR PRODUCTION THEREOF” (Chugai Seiyaku Kabushiki Kaisha, priority 2018, published 2023)
*1 amine or outer side, *2 acyl side, *3 side chain or, on linkers, in order; H or OH if unused. Where a SMILES comes first, the peptide text is derived from it. Bridges are numbered along the chain shown (N, C = ends). [ ]: non-standard residue; d: D form. The star is where a group is joined. ξ: configuration not given here. Phe(3-OMe,4-CONHMs) = COc1cc(C[C@H](N)C(=O)O)ccc1C(=O)NS(C)(=O)=O; dhPhe(4-CONHMe,3-OMe) = CNC(=O)c1ccc(CC[C@@H](N)C(=O)O)cc1OC; NMePhe(3-Cl) = CN[C@@H](Cc1cccc(Cl)c1)C(=O)O; X12 = O=C([C@H](CCCC(O)C(F)(F)F)N[*:1])[*:2]; NMehPhe = CN[C@@H](CCc1ccccc1)C(=O)O; X6 = O=C([C@H](CCCCO)N[*:1])[*:2]; NMeF = CN[C@@H](Cc1ccccc1)C(=O)O; NMeGABA = CN(CCCC(=O)[*:2])[*:1]; NMeξIle = CC[C@H](C)C(NC)C(=O)O; Butyl(3-Me,3-OH) = CC(C)(O)CC*; CH2CH(OH)CF3 = OC(C*)C(F)(F)F; NMeL = CN[C@@H](CC(C)C)C(=O)O; Butyl(3S-OH) = C[C@H](O)CC*; NMeV = CN[C@H](C(=O)O)C(C)C; NMeAbu = CC[C@H](NC)C(=O)O; NMeA = CN[C@@H](C)C(=O)O; Piperidide = C1CCN(*)CC1; CH2CONHMe = CNC(=O)C*; NBuGly = CCCCNCC(=O)O; Isopentyl = CC(C)CC*; NPrGly = CCCNCC(=O)O; ξV = CC(C)C(N)C(=O)O; Sar = CNCC(=O)O; tBu = CC(C)(C)*

test: in vitro; settings: human, Caco-2, Caco-2 (cm/sec)

SMILES	Papp [×10⁻⁶ cm/s]
CNC(=O)c1ccc(CC[C@H]2NC(=O)[C@H](CC(C)C)N(C)C(=O)CCCN(C)C(=O)C[C@@H](C(=O)N3CCCCC3)NC(=O)[C@H](CC(C)C)N(C)C(=O)[C@H](CC(C)C)N(C)C(=O)[C@H]([C@@H](C)O)NC(=O)[C@H](CC(C)C)N(C)C(=O)[C@H](COC(C)(C)C)NC(=O)[C@H](Cc3ccccc3)N(C)C(=O)[C@H](CC(C)C)N(C)C2=O)cc1OC [AP211] ([NMeGABA][NMeL][dhPhe(4-CONHMe,3-OMe)][NMeL][NMeF]S(tBu)[NMeL]T[NMeL][NMeL]D-Piperidide; lactam N-11)	0.36
CCCCN1CC(=O)N(C)[C@@H](Cc2cccc(Cl)c2)C(=O)N(C)[C@@H](CC(C)C)C(=O)N[C@@H](COCC[C@H](C)O)C(=O)N(C)[C@@H](CC(C)C)C(=O)N[C@H](C(=O)N2CCCCC2)CC(=O)N(C)CC(=O)N(C)[C@@H](Cc2ccccc2)C(=O)N[C@@H](C(C)C)C(=O)N(C)[C@@H](CC(C)C)C(=O)N[C@@H]([C@@H](C)O)C1=O [AP106] ([Sar][NMeF]V[NMeL]T[NBuGly][NMePhe(3-Cl)][NMeL]S(Butyl(3S-OH))[NMeL]D-Piperidide; lactam N-11)	0.25
CCCN1CC(=O)N(C)[C@@H](CCc2ccccc2)C(=O)N(C)[C@@H](CC(C)C)C(=O)N[C@@H](COCCC(C)C)C(=O)N(C)[C@@H](CC(C)C)C(=O)N[C@H](C(=O)N2CCCCC2)CC(=O)N(C)CC(=O)N(C)[C@@H](Cc2cccc(Cl)c2)C(=O)N[C@@H](CCCCO)C(=O)N(C)[C@@H](C(C)C)C(=O)N[C@@H]([C@@H](C)O)C1=O [Compound B07] ([Sar][NMePhe(3-Cl)][X6][NMeV]T[NPrGly][NMehPhe][NMeL]S(Isopentyl)[NMeL]D-Piperidide; lactam N-11)	0.21
CCCN1CC(=O)N(C)[C@@H](Cc2ccccc2)C(=O)N[C@@H]([C@@H](C)CC)C(=O)N(C)[C@@H](CC(C)C)C(=O)N[C@@H]([C@@H](C)O)C(=O)N(C)CC(=O)N(C)[C@@H](Cc2ccccc2)C(=O)N(C)[C@@H](CC(C)C)C(=O)N[C@@H](COCCC(C)(C)O)C(=O)N(C)[C@@H](CC(C)C)C(=O)N[C@H](C(=O)N2CCCCC2)CC1=O [AP59] ([NPrGly][NMeF]I[NMeL]T[Sar][NMeF][NMeL]S(Butyl(3-Me,3-OH))[NMeL]D-Piperidide; lactam N-11)	0.78
COc1cc(C[C@@H]2NC(=O)[C@H](CC(C)C)N(C)C(=O)[C@H](COC(C)(C)C)NC(=O)[C@H](Cc3ccccc3)N(C)C(=O)[C@H](CC(C)C)N(C)C(=O)[C@H](C)NC(=O)[C@H](CC(C)C)N(C)C(=O)CCCN(C)C(=O)C[C@@H](C(=O)N3CCCCC3)NC(=O)[C@H](CC(C)C)N(C)C(=O)[C@H](CC(C)C)N(C)C2=O)ccc1C(=O)NS(C)(=O)=O [AP141] ([NMeGABA][NMeL]A[NMeL][NMeF]S(tBu)[NMeL][Phe(3-OMe,4-CONHMs)][NMeL][NMeL]D-Piperidide; lactam N-11)	< 0.27

same assay, conditions: human, Caco-2, Caco-2 (membrane permeability)

SMILES	Papp [×10⁻⁶ cm/s]
CC(C)C[C@H]1C(=O)N[C@@H](CCCC(O)C(F)(F)F)C(=O)N(C)[C@@H](Cc2cccc(Cl)c2)C(=O)N(C)[C@@H](Cc2ccccc2)C(=O)N[C@@H](COC(C)(C)C)C(=O)N(C)[C@@H](CC(C)C)C(=O)N[C@@H]([C@@H](C)O)C(=O)N(C)[C@@H](CC(C)C)C(=O)N(C)[C@@H](CC(C)C)C(=O)N[C@H](C(=O)N2CCCCC2)CC(=O)N(C)CCCC(=O)N1C (stereo partly drawn) [Compound D02] ([NMeGABA][NMeL][X12][NMePhe(3-Cl)][NMeF]S(tBu)[NMeL]T[NMeL][NMeL]D-Piperidide; lactam N-11)	0.14
CCCCN1CC(=O)N(C)[C@@H](Cc2ccccc2)C(=O)N[C@@H](COCC(=O)NC)C(=O)N(C)[C@@H](CC(C)C)C(=O)N[C@@H]([C@@H](C)O)C(=O)N(CCC)CC(=O)N(C)[C@@H](Cc2ccccc2)C(=O)N(C)[C@@H](CC(C)C)C(=O)N[C@@H](CC(C)C)C(=O)N(C)[C@@H](CC(C)C)C(=O)N[C@H](C(=O)N2CCCCC2)CC1=O [Compound I05] ([NBuGly][NMeF]S(CH2CONHMe)[NMeL]T[NPrGly][NMeF][NMeL]L[NMeL]D-Piperidide; lactam N-11)	0.8
CC[C@H](C)C1C(=O)NC(C(C)C)C(=O)N(C)CC(=O)N(C)[C@@H](CC(C)C)C(=O)N[C@H](C(=O)N2CCCCC2)CC(=O)N(C)[C@@H](C)C(=O)N[C@@H](CCCC(O)C(F)(F)F)C(=O)N(C)[C@@H](CC(C)C)C(=O)N(C)[C@@H](Cc2ccccc2)C(=O)N[C@@H](CC(C)C)C(=O)N(C)[C@@H](Cc2ccccc2)C(=O)N1C (stereo partly drawn) [Compound D15] ([NMeA][X12][NMeL][NMeF]L[NMeF][NMeξIle][ξV][Sar][NMeL]D-Piperidide; lactam N-11)	0.61
CCCCN1CC(=O)N(C)[C@@H](Cc2ccccc2)C(=O)N(C)[C@@H](CC(C)C)C(=O)N[C@@H](COC(C)(C)C)C(=O)N(C)[C@@H](CC(C)C)C(=O)N[C@H](C(=O)N2CCCCC2)CC(=O)N(C)CC(=O)N(C)[C@@H](Cc2ccccc2)C(=O)N[C@@H](C(C)C)C(=O)N(C)[C@@H](CC)C(=O)N[C@@H](COCC(O)C(F)(F)F)C1=O (stereo partly drawn) [Compound C16] ([Sar][NMeF]V[NMeAbu]S(CH2CH(OH)CF3)[NBuGly][NMeF][NMeL]S(tBu)[NMeL]D-Piperidide; lactam N-11)	0.41
